According to article PMC5766898, “Eel Kisspeptins: Identification, Functional Activity, and Inhibition on both Pituitary LH and GnRH Receptor Expression” (Frontiers in Endocrinology, 2018):
Entries after “also recorded” stand apart in the source; their conditions may differ. Like-named read-outs stand apart in the source and are kept apart here. Ends that are not written are not given here.

Legend:
rat KissR-1 = molecular target: T1, rat KissR-1 (Rattus norvegicus, UniProt Q924U1); test: [Ca^2+]i response (Fluo-4 AM, FlexStation) in rat KissR-1-transfected CHO-K1 cells; type: cell-based; conditions: rat KissR-1 CHO-K1 cells, peak Fluo-4 fluorescence, 10^−12 to 10^−6 M, 37°C, four-parameter logistic, mean ± SEM from two independent experiments; for Emax: baseline normalized to 100%, 180 s recording
T1 construct: expressed in transfected cells
Method: CHO-K1 cells were cultured to semiconfluence in 12-well plates using Ham’s F12 medium supplemented with 10% fetal bovine serum and 1% antibiotic–antimycotic solution. Cells were transfected with different quantities of the recombinant plasmid, ranging from 3 to 5 µg, using Lipofectamine 2000 (Invitrogen, Cergy Pontoise, France) as previously described ([30]). Twenty-four hours after transfection, media were replaced by fresh F12 medium containing 1 mg/ml G418 (Geneticin; Life Technologies, Inc.). One week later, surviving cells were detached, diluted, and plated on 96-well plates at 0.7 cells/well. Monoclonal cell lines expressing rat KissR-1 (CHO-K1-rKissR-1) were followed daily by contrast phase microscopy. Seven independent monoclonal stable cell lines were obtained after a 3-week period of selection. By using qPCR, two cell lines were selected based on their expression levels being closest to physiological levels among all cell lines.
To compare the KissR-1 agonistic activities of eel Kp1(10), Kp2(10), Kp1(15), and Kp2(12), the level of [Ca^2+]i after stimulation of CHO-K1 cells stably expressing KissR-1 by these peptides was monitored by spectrofluorometry as previously described ([30], [31]) with slight modifications. Briefly, after 24 h in culture, cells were incubated for 1 h in a humidified incubator (37°C, 5% CO2) with 2 µM Fluo-4 acetoxymethyl ester (AM) calcium dye (Life Technologies, Saint Aubin, France) in Hank’s Buffer Saline Solution (HBSS; Life Technologies) buffered with 5 mM HEPES and supplemented with 2.5 mM probenecid (Sigma-Aldrich, Saint-Quentin Fallavier, France). Cells were washed twice with HBSS/HEPES/probenecid to remove Fluo-4 AM from the incubation medium and incubated in 150 µl of the same medium at 37°C for 15 min. Fluorescence was recorded using a Flexstation 3 fluorescence plate reader system (Molecular Devices, Saint-Grégoire, France) during 180 s with an excitation wavelength of 480 nm, an emission wavelength of 525 nm, and a cutoff filter of 515 nm. After 15 s recording in basal conditions, 50 µl of graded concentration (10^−12 to 10^−6 M) of different peptides (four-fold final concentration) was added to the incubation medium with the built-in eight-channel pipettor at a rate of 62 µl/s to assess their agonistic activity. After subtraction of mean fluorescence background from control wells without Fluo-4 AM, baseline was normalized to 100%, and fluorescence peak values were determined for each concentration of peptide. Potency (EC50) and efficacy (Emax) (Table 3) were determined with the Prism 6.0 software (GraphPad Software In., La Jolla, CA, USA) using a four-parameter logistic equation to fit peak fluorescence data.

human KissR-1 [1] = tested on: human KissR-1; set-up: method as in PMID 26047834; conditions: CHO cells; cited from earlier work
mouse KissR-1 = tested on: mouse KissR-1; set-up: method as in PMID 26047834; conditions: CHO cells; cited from earlier work
LH secretion = conditions: im injection, prepubertal and adult sea bass; Kp2(10) versus Kp1(10); cited from earlier work
Source text: (§1) This paradoxical inhibitory effect contrasts with the general action of kisspeptin as an activator of puberty and reproduction, mostly at the brain level ([70]), but also directly on the pituitary [for reviews see Ref. ([71], [72])]. […] In contrast, in other studied teleosts, the action of kisspeptin is generally ...

[2] = tested on: LH release by pituitary cells; conditions: cited from earlier work
Source text: as §1

[3] = tested on: lhβ expression by eel pituitary cells; conditions: eel pituitary cells in primary culture; cited from earlier work
Source text: In the eel, three Kiss receptor genes have been characterized, i.e., KissR-1, KissR-2, and KissR-3 ([19], [22]–[24]). Their expressions mainly occur in the brain, pituitary, and gonads ([19]).

[4] = tested on: fshβ expression by eel pituitary cells; conditions: eel pituitary cells in primary culture; cited from earlier work
human KissR-1 [5] = tested on: human KissR-1; set-up: method as in PMID 19164475; conditions: CV-1 cells; cited from earlier work
KissR-2 = conditions: cited from earlier work
Source text: (§2) For clarity, the nomenclature of Pasquier et al ([19], [24]) for KissR will be used in the following paragraphs. In teleost models with two receptors, various studies have shown differential affinities of Kiss peptides toward homologous receptors.

KissR-3 = conditions: cited from earlier work
Source text: as §2

LH release = conditions: cited from earlier work
Source text: as §1

lh expression = conditions: cited from earlier work
Source text: as §1

FSH gene transcription = conditions: striped bass; cited from earlier work
Source text: as §1

FSH peptide secretion = conditions: striped bass; cited from earlier work
Source text: as §1

plasma LH levels = conditions: striped bass, im, cited from earlier work
Source text: as §1

pituitary gnrh-r mRNAs = conditions: female striped bass at dummy run phase, chronic administration in vivo; cited from earlier work
Source text: (§3) This receptor is the one increased during experimental maturation in both female and male eels ([25]). To the best of our knowledge, only a single other study investigated the effect of kisspeptin on GnRH receptor in teleost. In female striped bass at dummy run phase (ovarian development is initiated but not completed), chronic administration in vivo of both Kp1(15) and Kp2(12) induces a decrease ...

FSH release = conditions: sea bass; cited from earlier work
Source text: as §1

[6] = tested on: expression of LH by pituitary cells; conditions: goldfish pituitary cells, mixed sexes at late stages of sexual regression; cited from earlier work
Source text: as §1

human KissR-1 [7] = tested on: human KissR-1; set-up: method as in PMID 18509165; conditions: COS-7 cells; cited from earlier work
type II gnrh-r = conditions: repeated injections, juvenile female Japanese quail; cited from earlier work
Source text: as §3

[8] = pituitary cells from sexually mature female goldfish
[9] = zebrafish, COS-7, CHO-K1, and HEK293 cells
[10] = pituitary cells from mature male sea bass
[11] = striped bass, COS-7 cells, Kp1(15) versus Kp2(12)

T1 sequence (Q924U1 whole entry): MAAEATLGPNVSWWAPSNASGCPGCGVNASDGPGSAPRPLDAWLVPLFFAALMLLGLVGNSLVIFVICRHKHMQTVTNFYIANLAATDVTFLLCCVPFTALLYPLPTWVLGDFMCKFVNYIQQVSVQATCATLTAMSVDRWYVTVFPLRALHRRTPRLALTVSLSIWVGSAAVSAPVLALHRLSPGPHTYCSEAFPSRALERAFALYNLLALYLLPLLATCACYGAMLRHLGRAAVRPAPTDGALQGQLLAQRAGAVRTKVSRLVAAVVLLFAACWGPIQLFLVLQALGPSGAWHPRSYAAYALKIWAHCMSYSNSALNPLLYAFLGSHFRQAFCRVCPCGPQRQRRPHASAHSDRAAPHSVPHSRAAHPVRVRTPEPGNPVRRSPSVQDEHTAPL

Substance ENFSSYNWNSFGLRY-NH2 [Eel Kp1(15)] has an Emax (rat KissR-1) of 277 ± 5.3% and an EC50 (rat KissR-1) of 11.8 ± 2 nM.
In the case of “FNFNPFGLRF [sea bass Kp2(10), sea bass Kiss peptide]”, the “activation of human KissR-1” value (human KissR-1 [1]) is listed as “can efficiently activate human KissR-1”, the “activation of mouse KissR-1” value (mouse KissR-1) is listed as “not able to induce any activation” and the “potency in inducing LH secretion” value (LH secretion) is listed as “significantly more potent than Kp1(10) in inducing LH secretion”.
Work on FNRNPFGLRF-NH2 [Eel Kp2(10)] yielded an Emax (rat KissR-1) of 260 ± 9.5% and an EC50 (rat KissR-1) of 56.6 ± 27.7 nM.
In the case of “FNYNPFGLRF [goldfish Kp2(10), homologous goldfish Kp2(10)]”, the “effect on LH release” value [2, 8] is given as “inactive on LH release”.
For “FNYNPFGLRF [zebrafish Kp2(10), heterologous kisspeptin]”, the “effect on lhβ expression, heterologous kisspeptins” value [3] is given as “can inhibit lhβ expression; also recorded: specific in vitro inhibitory effect”, the “effect on fshβ expression, heterologous kisspeptins” value [4] is given as “no effect on fshβ” and the “activation of human KissR-1” value (human KissR-1 [5]) is given as “highly efficient”. For the same substance, the “activation of KissR-2” value (KissR-2; [9]) was “activated by both Kp1(10) and Kp2(10)”.
For “HQDMSSYNFNSFGLRY [chub mackerel Kp1(16), chub mackerel predicted mature peptide]”, the “activity on KissR-3” value (KissR-3; chub mackerel, Kp1(16) versus Kp1(15)) is listed as “more active than the shorter Kp1(15)”.
In the case of “QDVSSYNLNSFGLRY [sea bass Kp1(15), sea bass Kiss peptide]”, the “activation of human KissR-1” value (human KissR-1 [1]) is listed as “can efficiently activate human KissR-1”, the “preference for KissR-2” value (KissR-2; sea bass, CHO cells) is listed as “preference for KissR-2” and the “effect on LH release” value (LH release; [10]) is listed as “no effect”. For the same substance, the “effect on lh expression” value (lh expression; [10]) was “no effect”.
In the case of “QDVSSYNLNSFGLRY [striped bass Kp1(15), striped bass Kiss peptide]”, the “activation of KissR-3” value (KissR-3; [11]) is given as “activate KissR-3 with the same potency”, the “effect on FSH gene transcription” value (FSH gene transcription) is given as “stimulate FSH” and the “effect on FSH peptide secretion” value (FSH peptide secretion) is given as “stimulate FSH”. The “effect on lh expression” value (lh expression; striped bass, in vitro) was “inhibitory effect on lh expression”, the “effect on plasma LH levels” value (plasma LH levels; gonadal recrudescence) was “could increase LH levels at gonadal recrudescence” and the “effect on plasma LH levels” value (plasma LH levels; overall) was “induces plasma LH levels in a stage-dependent manner”. The “effect on plasma LH levels” value (plasma LH levels; pubertal stage) was “no effect on LH at pubertal stage” and the “effect on pituitary gnrh-r mRNAs” value (pituitary gnrh-r mRNAs) was “induces a decrease of pituitary gnrh-r mRNAs”.
For “QNVAYYNLNSFGLRY [zebrafish Kp1(15), heterologous kisspeptin]”, the “effect on lhβ expression, heterologous kisspeptins” value [3] is given as “can inhibit lhβ expression; also recorded: specific in vitro inhibitory effect”, the “effect on fshβ expression, heterologous kisspeptins” value [4] is given as “no effect on fshβ” and the “activation of human KissR-1” value (human KissR-1 [5]) is given as “highly efficient”. The “preference for KissR-2” value (KissR-2; zebrafish, CV-1 cells) was “preference for KissR-2”.
In the case of “SKFNFNPFGLRF [sea bass Kp2(12), sea bass Kiss peptide]”, the “activation of human KissR-1” value (human KissR-1 [1]) is listed as “can efficiently activate human KissR-1”, the “potency for activating KissR-3” value (KissR-3; sea bass, CHO cells) is listed as “higher potency for activating KissR-3” and the “in vitro FSH release” value (FSH release) is listed as “can induce in vitro FSH release”. For the same substance, the “effect on LH release” value (LH release; [10]) was “induces both lh expression and LH release” and the “effect on lh expression” value (lh expression; [10]) was “induces both lh expression and LH release”.
In the case of “SKFNFNPFGLRF [striped bass Kp2(12), striped bass Kiss peptide]”, the “activation of KissR-2” value (KissR-2; striped bass, COS-7 cells, Kp2(12) versus Kp1(15)) is given as “more efficiently activated”, the “activation of KissR-3” value (KissR-3; [11]) is given as “activate KissR-3 with the same potency” and the “effect on FSH gene transcription” value (FSH gene transcription) is given as “stimulate FSH”. The “effect on FSH peptide secretion” value (FSH peptide secretion) was “stimulate FSH”, the “effect on LH release” value (LH release; striped bass, in vitro) was “stimulated LH release” and the “effect on plasma LH levels” value (plasma LH levels; gonadal recrudescence) was “could increase LH levels at gonadal recrudescence”. For the same substance, the “effect on plasma LH levels” value (plasma LH levels; overall) was “induces plasma LH levels in a stage-dependent manner” and the “effect on pituitary gnrh-r mRNAs” value (pituitary gnrh-r mRNAs) was “induces a decrease of pituitary gnrh-r mRNAs”.
With SKFNRNPFGLRF-NH2 [Eel Kp2(12)] the Emax (rat KissR-1) was 256 ± 6.7% and the EC50 (rat KissR-1) was 135 ± 18.9 nM.
For “SKFNYNPFGLRF [zebrafish Kp2(12), zebrafish Kiss peptide]”, the “activation of human KissR-1” value (human KissR-1 [5]) is given as “highly efficient” and the “potency for activating KissR-3” value (KissR-3; zebrafish, CV-1 cells) is given as “higher potency for activating KissR-3”.
For “YNLNSFGLRY [goldfish Kp1(10), homologous goldfish Kp1(10)]”, the “effect on LH release” value ([2]; goldfish pituitary cells, mixed sexes at late stages of sexual regression) is listed as “increases the release and expression of LH”, the “effect on LH release” value [2, 8] is listed as “inactive on LH release” and the “effect on LH expression” value [6] is listed as “increases the release and expression of LH”.
In the case of “YNLNSFGLRY [sea bass Kp1(10), sea bass Kiss peptide]”, the “activation of human KissR-1” value (human KissR-1 [1]) is listed as “can efficiently activate human KissR-1”.
For “YNLNSFGLRY [zebrafish Kp1(10), heterologous kisspeptin]”, the “effect on lhβ expression, heterologous kisspeptins” value [3] is given as “can inhibit lhβ expression; also recorded: specific in vitro inhibitory effect”, the “effect on fshβ expression, heterologous kisspeptins” value [4] is given as “no effect on fshβ” and the “activation of human KissR-1” value (human KissR-1 [7]) is given as “highly efficient”. For the same substance, the “activation of KissR-2” value (KissR-2; [9]) was “activated by both Kp1(10) and Kp2(10)” and the “activation of KissR-3” value (KissR-3; [9]) was “preferentially activated by Kp1(10)”.
In the case of “YNWNSFGLRF [human/lamprey Kp1(10), heterologous kisspeptin]”, the “effect on lhβ expression, heterologous kisspeptins” value [3] is given as “can inhibit lhβ expression; also recorded: specific in vitro inhibitory effect”, the “effect on fshβ expression, heterologous kisspeptins” value [4] is given as “no effect on fshβ” and the “effect on pituitary expression of type II gnrh-r” value (type II gnrh-r) is given as “upregulated pituitary expression of type II”.
Work on YNWNSFGLRY-NH2 [Eel Kp1(10)] yielded an Emax (rat KissR-1) of 236 ± 8.4% and an EC50 (rat KissR-1) of 8.5 ± 4.5 nM.
In the case of “human Kp1(14): heterologous kisspeptin (DLPNYNWNSFGLRF; ends and bridges not checked; UniProt Q15726 108-121, looked up)”, the “effect on lhβ expression, heterologous kisspeptins” value [3] is given as “can inhibit lhβ expression; also recorded: specific in vitro inhibitory effect” and the “effect on fshβ expression, heterologous kisspeptins” value [4] is given as “no effect on fshβ”.
